From patent US20170165231A1, “TREATING EWING'S SARCOMA AND EWS-FLI1 RELATED DISORDERS” (STAR BIOTECHNOLOGY, LLC, priority 2012, published 2017)
Like-named read-outs stand apart in the source and are kept apart here.

Legend:
[1] = parameters: species or system CF1 mice; settings: in vivo; for HL_Lambda_z: CF1, mouse
Source text: FIGS. 1A and 1B depict data of pharmacokinetic studies in CF1 mice with respect to administration of the API in the formulation shown in the Figures and via the route of administration shown in the Figures. […] In FIG. 1A group/dose=Group IV_IV_40; Rsq=0.9297; Rsq_adjusted=0.9062; HL_Lambda_z=4.7397 (hr); (5 points used in calculation); Uniform Weighting. […] In FIG. 1B group/dose=Group V_PO_40; Rsq=0.693; Rsq_adjusted=0.6163; HL_Lambda_z=2.0556 (hr); (6 points used in calculation); Uniform Weighting.
FIGS. 2A and 2B depict data of pharmacokinetic studies in CF1 mice with respect to administration of the API in the formulation shown in the Figures and via the route of administration shown in the Figures. […] In FIG. 2A dose/route=Group III_PO_150; Rsq=0.9685; Rsq_adjusted=0.9528; HL_Lambda_z=4.2505 (hr); (4 points used in calculation); Uniform Weighting. […] In FIG. 2B dose/route=Group VI_PO_400; Rsq=0.9971; Rsq_adjusted=0.9957; HL_Lambda_z=1.9461 (hr); (4 points used in calculation); Uniform Weighting.
Pharmacokinetics and bioavailability data was obtained from animal studies for a 50% PEG 400 plus 10% EtOH plus PBS formulation (Groups 1, 2 & 3) and a 40% PEG 400 plus 5% EtOH plus 18% TPGS plus PBS formulation (Groups 4, 5 & 6) and are shown below in Table 2.
The API was administered to CF1 mice. Blood was drawn from the mice at predetermined time intervals. Plasma was isolated from the blood and analyzed using LCMS to determine amounts of API (ng/mL). The data shown in FIG. 1A was obtained for IV administration of 40 mg/kg of API in a formulation containing 40% PEG400, 5% EtOH and 18% TPGS (d-alpha tocopheryl PEG1000 succinate). The data shown in FIG. 1B was obtained for PO administration of 40 mg/kg of API in a formulation containing 40% PEG400, 5% EtOH and 18% TPGS (d-alpha tocopheryl PEG1000 succinate). The data shown in FIG. 2A was obtained for PO administration of 150 mg/kg of API in a formulation containing 50% PEG400 and 10% EtOH. The data shown in FIG. 2B was obtained for PO administration of 400 mg/kg of API in a formulation containing 40% PEG400, 5% EtOH and 18% TPGS (d-alpha tocopheryl PEG1000 succinate). Time 0 in FIGS. 1A, 1B, 2A and 2B represent the time of administration of the API.

TC71 Luc cells = assay: TC71Luc Ewing's sarcoma xenograft murine model; type: in vivo, mice; settings: continuous and prolonged API administration
Source text: FIG. 3 (Smooth of Grouped-TC71 Luc Xenograft Animal Model) depicts data obtained from a TC71 Luc Ewing's sarcoma xenograft murine model for mice treated with the API in an EtOH (5%), PEG400 (40%), PBS formulation. The x-axis is time post-administration of the API in days with 0 being the first day of administration of API. The y-axis is tumor volume in mm^3.
Using a TC71Luc Ewing's sarcoma xenograft murine model, mice were subcutaneously injected with 1 million TC71 Luc cells. At a predetermined tumor volume (time=0), mice were given the first administration of API in an EtOH (5%), PEG400 (40%), PBS formulation. FIG. 3 depicts data obtained from control and for administration once per week (1×), three times per week (3×) and five times per week (5×) in each case at a dosage of 1.2 mg per mouse.

[2] = unformulated compound, background statement; cited from earlier work

HL_Lambda_z ([1]; iv, 40 mg/kg): 4.7397 h
HL_Lambda_z ([1]; po, 40 mg/kg): 2.0556 h
HL_Lambda_z ([1]; po, 150 mg/kg): 4.2505 h
HL_Lambda_z ([1]; po, 400 mg/kg): 1.9461 h
clearance rate from plasma ([1]; mouse): rapid
SMILES: COc1ccc(C(=O)CC2(O)C(=O)Nc3c(Cl)ccc(Cl)c32)cc1 (stereo not shown) [compound of Formula I, 4,7-Dichloro-1,3-dihydro-3-hydroxy-3[2-(4-methoxyphenyl)-2-oxoethyl]-2H-indol-2-one]
tumor abatement (TC71 Luc cells): increased tumor abatement
solubility in water [2]: highly insoluble
